In PubChem BioAssay (NCI):
Several values for one entry are separate records, joined by “and”; a condition that tells them apart may be missing. Equal values may be shown once.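 Values below derive from 48-hour exposures of cells grown in 96-well plates, with endpoints linearly interpolated between the two concentrations bracketing the appropriate inhibition level. Here, GI50 denotes the concentration required for 50% inhibition of growth. TGI marks complete inhibition of growth.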

Assays:
Test in all cases: growth of human tumour cells (NCI), 48 h
SN12C renal = tested on: SN12C renal
UACC-257 melanoma = tested on: UACC-257 melanoma
UO-31 renal = tested on: UO-31 renal
MDA-N = tested on: MDA-N
MALME-3M melanoma = tested on: MALME-3M melanoma
SK-MEL-5 melanoma = tested on: SK-MEL-5 melanoma
HCC-2998 colon = tested on: HCC-2998 colon
SF-295 CNS = tested on: SF-295 CNS
HT29 colon = tested on: HT29 colon
786-0 renal = tested on: 786-0 renal

| SMILES | TGI (SN12C renal) [µM] | TGI (UACC-257 melanoma) [µM] | TGI (UO-31 renal) [µM] | TGI (MDA-N) | TGI (MALME-3M melanoma) [µM] | TGI (SK-MEL-5 melanoma) [µM] | TGI (HCC-2998 colon) | TGI (SF-295 CNS) [µM] | TGI (HT29 colon) [µM] | TGI (786-0 renal) [µM] | GI50 (MDA-N) [µM] | GI50 (SF-295 CNS) [µM] |
| --- | --- | --- | --- | --- | --- | --- | --- | --- | --- | --- | --- | --- |
| Cc1cc(C)c(S(=O)(=O)N(CCCN)OCCCN)c(C)c1 | > 100 | > 100 | > 100 | > 100 µM | > 100 | > 100 | > 100 µM | > 100 | > 100 | – | – | – |
| CC(=O)OC1CC[C@@]2(C)C(=CC[C@@H]3[C@@H]2CC[C@]2(C)C(OC(C)=O)[C@H](n4ccnc4)C[C@@H]32)C1 (stereo partly specified) | > 100 | 31.1 | > 100 | 46.6 µM | 28.3 | 30.3 | – | > 100 | 23.7 | > 100 | – | – |
| COc1ccc2c(C(=O)c3c(C)n(CCN4CCOCC4)c4ccccc34)cccc2c1 | > 100 | 97.9 | > 100 | > 100 µM | 80.7 | 35.2 | – | 49 | 64 | > 100 | – | – |
| COc1cccc(-c2[nH]c3cc4c(cc3c(=O)c2C(=O)O)OCO4)c1 | > 100 | > 100 | > 100 | 51.5 µM | – | > 100 | 74.6 µM | 79.4 | > 100 | > 100 | – | – |
| Cc1cc(C)nc(NC(=S)Nc2ccc(Cl)cc2)c1 | > 100 | > 100 | > 100 | > 100 µM | > 100 | > 100 | – | > 100 | > 100 | 80.2 | – | – |
| c1csc(C(NC2=NCCO2)C2CC2)c1 (stereo unspecified) | > 100 | – | > 100 | > 100 µM | – | > 100 | > 100 µM | > 100 | > 100 | – | – | – |
| N#C[C@H](C(=O)c1ccccc1F)c1nc2ccccc2[nH]1 | > 100 | > 100 | > 100 | > 100 µM | – | – | > 100 µM | > 100 | > 100 | > 100 | – | – |
| O=c1[nH]c(=S)[nH]c2c(C3OC(CO)C(O)C3O)nsc12 (stereo unspecified) | > 100 | > 100 | – | > 100 µM | > 100 | > 100 | > 100 µM | > 100 | > 100 | – | – | – |
| CC(=O)N1c2ccccc2[C@H]2CCc3c([nH]c4ccccc34)[C@H]21 | 27.5 | > 100 | 67.6 | 49.3 µM | 30.7 | 26.2 | – | 74.4 | 44.7 | 32.2 | – | – |
| Clc1cccc2[nH]ncc12 | > 100 | > 100 | – | > 100 µM | – | > 100 | > 100 µM | > 100 | > 100 | > 100 | – | – |
| O=C1c2ccccc2-n2c1nc1ccc(Cl)cc1c2=O | > 100 | > 100 | > 100 | 48.3 µM | – | > 100 | > 100 µM | > 100 | > 100 | > 100 | – | – |
| COc1ccc(/C=N/n2c(Cc3ccccc3)n[nH]c2=O)cc1 | > 100 | > 100 | > 100 | > 100 µM | > 100 | – | > 100 µM | > 100 | > 100 | > 100 | – | – |
| CC(=O)Nc1cc(/C=C\C(=O)N2CC(CCl)c3c2cc(N)c2ccccc32)n(C)n1 (stereo unspecified) | – | 0.0394 | 0.0214 | 0.0411 µM and 0.0435 µM | – | – | 0.0733 µM and 0.0826 µM | – | – | – | 0.0136 | 0.0426 |
| Nc1ncc(Sc2ccccc2C(=O)O)s1 | > 100 | > 100 | > 100 | > 100 µM | – | > 100 | – | > 100 | > 100 | > 100 | – | – |
| CCOP(=O)(/C=C/n1cnc2c(=O)n(C(C)=O)c(N)nc21)OCC | > 100 | > 100 | – | > 100 µM | – | > 100 | – | > 100 | > 100 | > 100 | – | – |
| CCOP(=O)(/C=C\n1ccc(=O)[nH]c1=O)OCC | > 100 | > 100 | – | > 100 µM | – | > 100 | – | > 100 | > 100 | > 100 | – | – |
| Nc1nc2c(c(=O)[nH]1)NC(CCNc1ccc(C(=O)O)cc1)CN2 (stereo unspecified) | > 100 | > 100 | > 100 | > 100 µM | > 100 | > 100 | – | > 100 | > 100 | > 100 | – | – |
| Nc1ncnc2c1N=C(c1ccccc1)CC(c1ccccc1)N2 (stereo unspecified) | > 100 | > 100 | > 100 | > 100 µM | > 100 | – | > 100 µM | > 100 | > 100 | > 100 | – | – |
| CC(C)(CC1(C)NC(=O)NC1=O)OCc1ccccc1 (stereo unspecified) | > 100 | > 100 | > 100 | – | > 100 | > 100 | > 100 µM | > 100 | > 100 | > 100 | – | – |
| Brc1ccc(-c2nc(-c3ccc(Br)cc3)n(-c3ccccc3)n2)cc1 | > 100 | > 100 | > 100 | > 100 µM | – | > 100 | – | > 100 | > 100 | > 100 | – | – |
